Source: publication PMC8414367, “(E)-7-Ethylidene-lithocholic Acid (7-ELCA) Is a Potent Dual Farnesoid X Receptor (FXR) Antagonist and GPBAR1 Agonist Inhibiting FXR-Induced Gene Expression in Hepatocytes and Stimulating Glucagon-like Peptide-1 Secretion From Enteroendocrine Cells” (Frontiers in Pharmacology, 2021)

Experiments:
[1] = test system: BSEP and SHP mRNA (FXR target genes), HepaRG cells; assay: RT-qPCR of FXR target genes in differentiated HepaRG cells; format: cell-based, human; settings: for BSEP mRNA level upregulated by OCA / SHP mRNA level upregulated by OCA: 40 µM with OCA 1 µM, 24 h; for BSEP and SHP mRNA expression, compound per se: without OCA
Source text: (§1) Total RNA from HepaRG cells or primary human hepatocyte samples was isolated by the phenol/chloroform method with TRI-reagent (Merck) according to the manufacturer's protocol. The cDNA was synthesized using a Tetro cDNA Synthesis Kit (Bioline, now Meridian Bioscience, Memphis, United States), and RT-qPCR was run in the Quant Studio 6 instrument using the Fast Advanced Master Mix (ThermoFisher Scientific, Waltham, United States) according to the MIQE protocols. All the probes were obtained from ThermoFisher Scientific: ABCB11 (BSEP, Hs00184824_m1), NR0B2 (SHP, Hs00222677_m1).
(§2) FIGURE 6 Regulation of FXR downstream genes by 7-ELCA and 7β-propyl-CDCA in the presence or absence of 1 µM OCA as the potent FXR agonist. Real-time qPCR analysis of mRNA expression of (A,C) BSEP and (B,D) SHP genes was performed in terminally differentiated HepaRG hepatic cells (A,B), and in primary human hepatocytes (PHH) from one donor treated for 24 h (C,D). (E) SHP protein expression in HepaRG cells after 48 h treatment with OCA alone or in combination with 7-ELCA and 7β-propyl-CDCA. Data were normalized to B2M mRNA or GAPDH protein and are expressed relative to those of control (vehicle-treated) cells.

[2] = test system: BSEP and SHP mRNA (FXR target genes), primary human hepatocytes; assay: RT-qPCR of FXR target genes in primary human hepatocytes; format: cell-based; settings: for BSEP mRNA level upregulated by OCA / SHP mRNA level upregulated by OCA: 40 µM with OCA 1 µM, 24 h; for BSEP and SHP mRNA expression, compound per se: without OCA
Source text: as §1, §2

[3] = test system: SHP protein, HepaRG cells; assay: Western blot of SHP protein in HepaRG cells; format: cell-based, human; settings: with OCA 1 µM, 48 h
Description: Protein determination was performed from whole-cell lysates of terminally differentiated HepaRG cells treated for 48 h. Protein levels were quantified using a PierceTM BCA Protein Assay Kit (ThermoFisher Scientific, Waltham, United States) according to the manufacturer's protocol. The western blotting analysis was performed as described in our previous paper ([Stefela et al., 2020]) with mouse monoclonal anti-SHP antibody (clone OTI5F10, Cat. No. TA806319, Origene, Rockville, MD, United States) and antibody against GAPDH (Cell Signaling Technology, Leiden, the Netherlands) as a loading control. Protein concentration was measured using the BCA protein assay (Sigma-Aldrich/Merck, Prague, Czech Republic). Protein expression quantification was done using densitometric software (LabImage, Kapelan Bio-Imaging, Germany).
as §2, with “Data were normalized to B2M mRNA or GAPDH protein and are expressed relative to those of control (vehicle-treated) cells.” left out

GPBAR1 = biological target: T1, GPBAR1 (Homo sapiens, UniProt Q8TDU6); assay: GPBAR1 CRE-luc luciferase reporter assay in HepG2 cells; format: cell-based; settings: for CRE-luc activation compared to LCA (in words): 10 µM, 5 h, LCA 10 µM set as 100%
T1 construct: host or cells: HepG2
T1 sequence (Q8TDU6 1-330): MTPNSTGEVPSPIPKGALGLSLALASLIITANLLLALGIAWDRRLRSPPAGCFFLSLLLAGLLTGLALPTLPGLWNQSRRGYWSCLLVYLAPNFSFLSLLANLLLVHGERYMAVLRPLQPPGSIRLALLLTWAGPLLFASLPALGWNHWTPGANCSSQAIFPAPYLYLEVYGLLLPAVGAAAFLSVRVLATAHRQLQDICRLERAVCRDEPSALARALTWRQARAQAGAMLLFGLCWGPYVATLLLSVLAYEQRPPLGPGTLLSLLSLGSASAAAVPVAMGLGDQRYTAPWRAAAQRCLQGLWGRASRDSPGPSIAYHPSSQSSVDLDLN
Description: (C) Effects of LCA and 7-ELCA (both at 10 µM) on intracellular generation of cAMP in differentiated NCI-H716 cells after 30 min treatment. The increase in cAMP level (ΔcAMP) is presented as the difference between cAMP concertation in the treated sample after subtraction of the cAMP in the nontreated control sample. (D) Concentration-response curves for activation of GPBAR1 by LCA and 7-ELCA. EC50 values were calculated using nonlinear fitting of concentration-response curves. […] GLP-1 was normalized to protein concentration and GPBAR1 mRNA expression to GAPDH mRNA. Data are presented as a fold to control nontreated (NT) samples. Forskolin (FSK, 10 µM) was used as a GPBAR1-independent activator of cAMP production.

MTS viability assay [4] = format: cell-based, human; settings: human, vehicle = 100%
Description: (§3) The potential cytotoxicity of 7-alkylated chenodeoxycholic acid derivatives were assessed in different human (HepG2, HepaRG and Huh7) and murine (AML12) hepatocyte-derived cell lines. For this purpose, hepatic cells were treated at increasing concentration for 24h and analyzed by MTS viability assay.
(§4) Table S2. Cell viability was determined using the Cell Titer 96 Aqueous One Solution Cell Proliferation Assay (MTS assay) after treatment with test compounds for 24 h in four different hepatic cell lines. Vehicle (0.1% DMSO) and background (10% SDS; v/v, toxic control) controls of cell viability were set to be 100% and 0%, respectively.

HepG2 = assay: MTS viability assay; format: cell-based, human; settings: Homo sapiens; HepG2, 24 h, MTS; read-out: IC50 (µM), cell viability
Description: as §3, §4

HepaRG = assay: MTS viability assay; format: cell-based, human; settings: Homo sapiens, 24 h, MTS, read-out: IC50 (µM), cell viability
Description: as §3, §4

Huh7 = assay: MTS viability assay; format: cell-based, human; settings: Homo sapiens, Huh-7; Huh7, 24 h, MTS; read-out: IC50 (µM), cell viability
Description: as §3, §4

MTS viability assay [5] = format: cell-based, murine; settings: mouse, AML12 cells; AML12, 24 h, vehicle = 100%
Description: as §3, §4

AML12 = assay: MTS viability assay; format: cell-based, murine; settings: Mus musculus; AML12, 24 h, MTS; read-out: IC50 (µM), cell viability
Description: as §3, §4

Compound	BSEP mRNA level upregulated by OCA [1]	SHP mRNA level upregulated by OCA [1]	BSEP and SHP mRNA expression, compound per se [1]	BSEP mRNA level upregulated by OCA [2]	SHP mRNA level upregulated by OCA [2]	BSEP and SHP mRNA expression, compound per se [2]	SHP protein expression in cells treated with OCA [3]	CRE-luc activation compared to LCA (in words) (GPBAR1)	viability at 24 h, 10 µM (MTS viability assay [4]; HepG2 cells, HepG2, 24 h)	viability at 24 h, 10 µM (MTS viability assay [4]; HepaRG cells)	viability at 24 h, 10 µM (MTS viability assay [4]; Huh7 cells, Huh7, 24 h)	IC50 (HepG2)	IC50 (HepaRG)	IC50 (Huh7)	viability at 24 h, 10 µM (MTS viability assay [5])	IC50 (AML12)	EC50 (GPBAR1; abstract, read-out: EC50, GPBAR1 agonist)
CCC[C@@]1(O)C[C@@H]2C[C@H](O)CC[C@]2(C)C2CC[C@@]3(C)C(CC[C@@H]3[C@H](C)CCC(=O)O)C21 (stereo partly drawn) [2f, 3α,7α-Dihydroxy-7β-propyl-5β-cholan-24-oic acid]	reduced	reduced	did not have an impact	reduced	reduced	did not have an impact	FXR antagonistic effect	comparable activities to LCA	94.9 ± 11.7%	89.4 ± 2.5%	117 ± 2.3%	107 ± 1.1 µM	97.3 µM	> 100 µM	81.2 ± 1%	90.8 µM	–
C/C=C1\C[C@@H]2C[C@H](O)CC[C@]2(C)[C@H]2CC[C@]3(C)[C@@H]([C@H](C)CCC(=O)O)CC[C@H]3[C@H]12 [2a, (E)-3α-Hydroxy-7-ethylidene-5β-cholan-24-oic acid]	reduced	reduced	did not have an impact	reduced	reduced	did not have an impact	FXR antagonistic effect	significantly increase CRE-luc activation more than LCA	99.7 ± 1.2%	119 ± 6%	111 ± 9.5%	> 200 µM	> 200 µM	> 200 µM	108 ± 4.8%	> 200 µM	0.026 µM
